Values after ≈ are worked out from the molar mass of the structure shown. Active and inactive are the calls of the source. No cut-off for these calls is given here.
How the values were obtained:
[1] = tested on: Escherichia coli; assay: Antibacterial activity against Escherichia coli O157:H7 ATCC 43894 at pH 3.5 after 24 hrs by microdilution method; format: functional; settings: O157:H7 ATCC 43894, 24 h
[2] = tested on: Escherichia coli; assay: Antibacterial activity against Escherichia coli O157:H7 ATCC 43894 at pH 5.5 after 24 hrs by microdilution method; format: functional; settings: O157:H7 ATCC 43894, 24 h
[3] = tested on: Escherichia coli; assay: Antibacterial activity against Escherichia coli O157:H7 ATCC 43894 at pH 7 after 24 hrs by microdilution method; format: functional; settings: O157:H7 ATCC 43894, 24 h
[4] = tested on: Escherichia coli; assay: Antibacterial activity against Escherichia coli O157:H7 ATCC 43894 at pH 8.5 after 24 hrs by microdilution method; format: functional; settings: O157:H7 ATCC 43894, 24 h
[5] = tested on: Escherichia coli; assay: Antibacterial activity against Escherichia coli O157:H7 ATCC 43894 after 24 hrs by microdilution method in presence of 85 mM NaCl; format: functional; settings: O157:H7 ATCC 43894, 24 h
[6] = tested on: Escherichia coli; assay: Antibacterial activity against Escherichia coli O157:H7 ATCC 43894 after 24 hrs by microdilution method in presence of 170 mM NaCl; format: functional; settings: O157:H7 ATCC 43894, 24 h
[7] = tested on: Staphylococcus aureus; assay: Antibacterial activity against methicillin-resistant Staphylococcus aureus isolate 15903 after 24 hrs at 48 degC by microdilution method; format: functional; settings: isolate 15903, 24 h
[8] = tested on: Staphylococcus aureus; assay: Antibacterial activity against Staphylococcus aureus ATCC 25923 at pH 7 after 24 hrs by microdilution method; format: functional; settings: ATCC 25923, 24 h
[9] = tested on: Staphylococcus aureus; assay: Antibacterial activity against Staphylococcus aureus ATCC 29213 at pH 7 after 24 hrs by microdilution method; format: functional; settings: ATCC 29213, 24 h
[10] = tested on: Staphylococcus aureus; assay: Antibacterial activity against methicillin-resistant Staphylococcus aureus ATCC 43300 at pH 7 after 24 hrs by microdilution method; format: functional; settings: ATCC 43300, 24 h
[11] = tested on: Escherichia coli; assay: Antibacterial against Escherichia coli O157:H7 ATCC 43894 at pH 8.5 after 24 hrs at 48 degC by microdilution method in presence of 85 mM NaCl; format: functional; settings: O157:H7 ATCC 43894, 24 h
[12] = tested on: Listeria monocytogenes; assay: Antibacterial against Listeria monocytogenes ATCC 19115 at pH 8.5 after 24 hrs at 48 degC by microdilution method in presence of 85 mM NaCl; format: functional; settings: ATCC 19115, 24 h
[13] = tested on: Staphylococcus aureus; assay: Antibacterial against methicillin-resistant Staphylococcus aureus isolate 15903 at pH 8.5 after 24 hrs at 48 degC by microdilution method in presence of 85 mM NaCl; format: functional; settings: isolate 15903, 24 h
[14] = tested on: Lipid bilayer; assay: Binding affinity to phospholipid membrane model at pH 8.5 by surface plasmon resonance in presence of 140 mM NaCl
[15] = tested on: Listeria monocytogenes; assay: Ratio of MIC for Listeria monocytogenes ATCC 19115 in presence of 85 mM NaCl to MIC for Listeria monocytogenes ATCC 19115 at pH 8.5 after 24 hrs at 48 degC in presence of 85 mM NaCl; format: functional
[16] = tested on: Staphylococcus aureus; assay: Ratio of MIC for methicillin-resistant Staphylococcus aureus isolate 15903 in presence of 85 mM NaCl to MIC for methicillin-resistant Staphylococcus aureus isolate 15903 at pH 8.5 after 24 hrs at 48 degC in presence of 85 mM NaCl; format: functional
[17] = tested on: Escherichia coli; assay: Antibacterial activity against Escherichia coli O157:H7 ATCC 43894 assessed as reduction in bacterial population at 0.01 to 10 uM up to 15 mins by time-kill assay; format: functional
[18] = tested on: Listeria monocytogenes; assay: Antibacterial activity against Listeria monocytogenes ATCC 19115 assessed as reduction in bacterial population at 0.01 to 10 uM up to 15 mins by time-kill assay; format: functional
[19] = tested on: Staphylococcus aureus; assay: Antibacterial activity against methicillin-resistant Staphylococcus aureus isolate 15903 assessed as reduction in bacterial population at 0.01 to 10 uM up to 15 mins by time-kill assay; format: functional
[20] = tested on: Lipid bilayer; assay: Binding affinity to phospholipid membrane model at pH 7 by surface plasmon resonance in presence of 140 mM NaCl
[21] = tested on: Escherichia coli; assay: Antibacterial activity against Escherichia coli O157:H7 ATCC 43894 after 24 hrs by microdilution method in presence of 260 mM NaCl; format: functional; settings: O157:H7 ATCC 43894, 24 h
[22] = tested on: Escherichia coli; assay: Antibacterial activity against Escherichia coli O157:H7 ATCC 43894 after 24 hrs by microdilution method in presence of 515 mM NaCl; format: functional; settings: O157:H7 ATCC 43894, 24 h
[23] = tested on: Escherichia coli; assay: Antibacterial activity against Escherichia coli O157:H7 ATCC 43894 after 24 hrs by microdilution method in presence of 1030 mM NaCl; format: functional; settings: O157:H7 ATCC 43894, 24 h
[24] = tested on: Escherichia coli; assay: Antibacterial activity against Escherichia coli O157:H7 ATCC 43894 after 24 hrs by microdilution method in presence of 20 mM MgCl2; format: functional; settings: O157:H7 ATCC 43894, 24 h
[25] = tested on: Escherichia coli; assay: Antibacterial activity against Escherichia coli O157:H7 ATCC 43894 after 24 hrs by microdilution method in presence of 40 mM MgCl2; format: functional; settings: O157:H7 ATCC 43894, 24 h
[26] = tested on: Escherichia coli; assay: Antibacterial activity against Escherichia coli O157:H7 ATCC 43894 after 24 hrs by microdilution method in presence of 80 mM MgCl2; format: functional; settings: O157:H7 ATCC 43894, 24 h
[27] = tested on: Escherichia coli; assay: Antibacterial activity against Escherichia coli O157:H7 ATCC 43894 after 24 hrs by microdilution method in presence of 160 mM MgCl2; format: functional; settings: O157:H7 ATCC 43894, 24 h
[28] = tested on: Escherichia coli; assay: Antibacterial activity against Escherichia coli O157:H7 ATCC 43894 after 72 hrs at 4 degC by microdilution method; format: functional; settings: O157:H7 ATCC 43894, 72 h
[29] = tested on: Escherichia coli; assay: Antibacterial activity against Escherichia coli O157:H7 ATCC 43894 after 24 hrs at 25 degC by microdilution method; format: functional; settings: O157:H7 ATCC 43894, 24 h

For `CCCCCCCCCCCC(=O)N[C@@H](CCCCN)C(=O)NCCCCCCCC(=O)N[C@@H](CCCCN)C(=O)NCCCCCCCC(=O)N[C@@H](CCCCN)C(=O)NCCCCCCCC(=O)N[C@@H](CCCCN)C(=O)NCCCCCCCC(=O)N[C@@H](CCCCN)C(=O)NCCCCCCCC(=O)N[C@@H](CCCCN)C(=O)NCCCCCCCC(=O)N[C@@H](CCCCN)C(=O)NCCCCCCCC(=O)N[C@@H](CCCCN)C(N)=O`, the MIC [1] was > 50 µM, the MIC [2] was 3.1 µM (≈ 6.86 µg/mL) and the MIC [3] was 3.1 µM (≈ 6.86 µg/mL). It also gave an MIC [4] of 1.6 µM (≈ 3.54 µg/mL), an MIC [5] of 3.1 µM and an MIC [6] of 3.1 µM. It also gave an MIC [7] of 3.1 µM (≈ 6.86 µg/mL), an MIC [8] of 25 µM (≈ 55.3 µg/mL) and an MIC [9] of 50 µM (≈ 111 µg/mL). For the same compound, the MIC [10] was 50 µM (≈ 111 µg/mL), the MIC [11] was 0.2 µM and the MIC [12] was 0.05 µM. For the same compound, the MIC [13] was 0.8 µM, the Activity [14] was “Active” and the Ratio [15] was 32. The Ratio [16] was 16, the “inhibition (INH)” value [17] was 99% and the “inhibition (INH)” value [18] was 99%. For the same compound, the “inhibition (INH)” value [19] was 99%, the Activity [20] was “inactive” and the MIC [21] was 6.3 µM. The MIC [22] was 6.3 µM, the MIC [23] was 12.5 µM and the MIC [24] was 3.1 µM. For the same compound, the MIC [25] was 6.3 µM, the MIC [26] was 12.5 µM and the MIC [27] was 50 µM. It also gave an MIC [28] of 6.3 µM (≈ 13.9 µg/mL) and an MIC [29] of 3.1 µM (≈ 6.86 µg/mL).

Reference: ChEMBL document CHEMBL1255495, “Experimental conditions that enhance potency of an antibacterial oligo-acyl-lysyl” (2010)
